This experiment has as its system 192522-019-R-J2-PDC complex tumor spheroid viability. The experiment is described as follows: Anticancer human tumor 192522-019-R-J2-PDC patient-derived colon adenocarcinoma cell line growth inhibition [POLQ]. Particulars: for viability, T/C: stronger effect = lower value. As to the method:
Multicellular complex tumor spheroid response to Polymerase (POL) inhibitors (novobiocin, ART-558, RP6685) in combination with a variety of drugs and investigational agents in selected tumor cell lines
The POL inhibitors (novobiocin, ART-558, and RP6685) were evaluated both individually and in combination with standard of care and investigational anticancer small molecules within a complex spheroid model of solid tumors. . Complex spheroids include a stromal component modeled by human endothelial cells (HUVEC) and fibroblasts modeled by human mesenchymal stem cells (MSCs). The concentration ranges selected for each drug and investigational agent were based upon clinically achievable concentrations if the clinical Cmax of the agent was known.
Compounds. The drugs and investigational agents: novobiocin (NSC847541), ART-558 (NSC835418), RP-6685 (NSC848927), peposertib (NSC802822), ceralasertib (NSC780249), elimusertib (NSC800525), camonsertib (NSC841442), AZD-1390 (NSC803789), olaparib (NSC753686), talazoparib (NSC767125), rucaparib (NSC756644), sotorasib (NSC818433), MRTX-1133 (NSC836407), SN-38 (NSC673596), topotecan (NSC609699), epotoside (NSC141540), doxorubicin (NSC123127), gemcitabine (NSC613327), 5-fluorouracil (NSC19893), paclitaxel (NSC125973), vemurafenib (NSC761431), MSA-2 (NSC828583), SN-011 (NSC837082), adavosertib (NSC754352), prexasertib (NSC758257), carboplatin (NSC241240) and oxaliplatin (NSC266046), were obtained from the National Cancer Institute (NCI) Developmental Therapeutics Program Chemical Repository (21). The FDA-approved anticancer drug set is available from the Developmental Therapeutics Program at https://dtp.cancer.gov/organization/dscb/obtaining/. […] The stock solutions were prepared in dimethyl sulfoxide (DMSO, Sigma-Aldrich, St. Louis, MO, cat. D2650), except for the platinum compounds which were prepared in saline (Quality Biological, Gaithersburg, MD, cat. 114-055-101), at 800-fold the tested concentration and stored at -70 degrees C prior to their use. All drugs and investigational agents were tested over a range starting from a high concentration at or near the clinical Cmax and decreasing in half-log increments. If the clinical Cmax for an agent had not been determined, the highest concentration tested was 10 microM, except for SN-38, which was tested at a high concentration of 1 microM.
Cell Culture. All cells were maintained in an incubator at 37 degrees C and 5% CO2 with 95% humidity. The PDC lines were cultured according to standard operating procedures established by the NCI PDMR (https://pdmr.cancer.gov). Table 3 of the manuscript, lists the cell lines along with the number of the three cell types plated to form the mct-spheroids and media for tumor cell growth. After thawing, all PDC lines, except 997537-175-T-J1-PDC and 415267-285-R-J2-PDC, were cultured in Matrigel-coated flasks prepared with a working solution of 1X Ham's F-12 nutrient mix, without supplementation (Thermo Fisher Scientific, cat. 11765054), 100 U/mL penicillin-streptomycin (Thermo Fisher Scientific, cat. 15140122), and 2.5% Matrigel (Corning Inc., Corning, NY, cat. 354248) for the first three passages. The two PDC lines 997537-175-T-J1-PDC and 415267-285-R-J2-PDC were cultured on uncoated flasks. The 857933-349-R-J2-PDC line was cultured in 6C/Colon 1B media containing advanced DMEM/F-12 (Thermo Fisher Scientific, cat. 12634028), 10 mM HEPES (Thermo Fisher Scientific, cat. 15630080), 1X GlutaMAX supplement (Thermo Fisher Scientific, cat. 35050061), 0.1 mg/mL primocin (InvivoGen, San Diego, CA, cat. ant-pm-2), 10% defined fetal bovine serum, heat inactivated (HyClone Laboratories Inc., Logan, UT, cat. SH30070.03HI), 50% L-WRN conditioned media (ATCC, cat. CRL-3276), 1.25 mM N-Acetyl-L-cysteine (Sigma-Aldrich, cat. A9165), 10 mM nicotinamide (Sigma-Aldrich, cat. N0636), 1X B-27 supplement (Thermo Fisher Scientific, cat. 17504044), 1X N-2 supplement (Thermo Fisher Scientific, cat. […]

Values joined by “and” are separate entries in the source; they are usually repeats but may differ in a detail not shown here. Identical values can stand only once.
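Further: spheroids exposed to drugs for seven days before reading.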
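Wherever viability, T/C is given: 100% = DMSO vehicle control viability in luminescence.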

Turning to `C=CCn1c(=O)c2cnc(Nc3ccc(N4CCN(C)CC4)cc3)nc2n1-c1cccc(C(C)(C)O)n1`, the viability, T/C runs as follows: (compound 0.00316 µM) 101% and 105% and 108%; (compound 0.01 µM) 97.8% and 97.2% and 97%; (compound 0.0316 µM) 97.5% and 100% and 99.1%; (compound 0.1 µM) 102% (2×) and 106%; (compound 0.316 µM) 85.8% and 97% and 86.1%; (compound 1 µM) 24.8% and 36.2% and 38.5%. For the setting “curve of compound”, the IC50 is 627 nM and 773 nM and 764 nM.

On to `CC(=O)O[C@H]1C(=O)[C@@]2(C)[C@H]([C@H](OC(=O)c3ccccc3)[C@]3(O)C[C@H](OC(=O)[C@H](O)[C@@H](NC(=O)c4ccccc4)c4ccccc4)C(C)=C1C3(C)C)[C@]1(OC(C)=O)CO[C@@H]1C[C@@H]2O`, for which the viability, T/C by setting is: (compound 0.00949 µM) 90.9% and 93% and 91.4%; (compound 0.03 µM) 61.5% and 61.7% and 71.9%; (compound 0.0949 µM) 56.5% and 58.9% and 54.1%; (compound 0.3 µM) 54.5% and 54.7% and 52.9%; (compound 0.949 µM) 54.3% and 56.4% and 57.7%; (compound 3 µM) 53% and 61.1% and 54.8%. Further, the IC50 (curve of compound) was above 3000 nM.

For the compound `CC(C)n1c(=O)n(C)c2cnc3cc(F)c(-c4ccc(OCCCN5CCCCC5)nc4)cc3c21`, the viability, T/C (compound 0.0316 µM) is 102% and 106% and 98.7%; the viability, T/C (compound 0.1 µM) is 87.7% and 95.6% and 105%; the viability, T/C (compound 0.316 µM) was 89.9% and 108% and 92.3%; the viability, T/C (compound 1 µM) was 114% and 122% and 112%; the viability, T/C (compound 3.16 µM) is 118% (2×) and 130%; the viability, T/C (compound 10 µM) is 92.8% and 101% and 90.6%. The IC50 (curve of compound) is above 10000 nM.

Turning to `CC1COCCN1c1cc(-c2ccnn2C)c2ccnc(-c3ccn[nH]3)c2n1` (centres undefined), the viability, T/C reads like this: (compound 0.0316 µM) 97.7% and 93.8% and 106%; (compound 0.1 µM) 76% and 76.1% and 87.4%; (compound 0.316 µM) 43.4% and 45% and 54.1%; (compound 1 µM) 33.5% (2×) and 32.2%; (compound 3.16 µM) 35.1% and 40.1% and 41%; (compound 10 µM) 48% and 44.6% and 47.2%. In addition, under “curve of compound”, the IC50 was 246 nM and 256 nM and 400 nM.

With `CC1COCCN1c1cc(C2(S(C)(=N)=O)CC2)nc(-c2ccnc3[nH]ccc23)n1` (centres undefined), the viability, T/C by setting is: (compound 0.0316 µM) 102% (2×) and 110%; (compound 0.1 µM) 90% and 103% and 101%; (compound 0.316 µM) 97% and 97.9% and 103%; (compound 1 µM) 90.6% and 100% and 91.6%; (compound 3.16 µM) 59.7% and 64.2% and 56.4%; (compound 10 µM) 31.6% and 37.1% and 31.1%. The IC50 (curve of compound) is 4700 nM and 5780 nM and 4210 nM.

For `CCCS(=O)(=O)Nc1ccc(F)c(C(=O)c2c[nH]c3ncc(-c4ccc(Cl)cc4)cc23)c1F`, the viability, T/C is 96.5% and 100% and 106% (compound 0.0316 µM); 108% and 104% and 96.8% (compound 0.1 µM); 105% and 96.5% and 104% (compound 0.316 µM); 106% and 108% and 97.6% (compound 1 µM); 116% and 106% and 120% (compound 3.16 µM); 74% and 82% and 94.8% (compound 10 µM). The IC50 (curve of compound) is above 10000 nM.

For `CC[C@@]1(O)C(=O)OCc2c1cc1n(c2=O)Cc2cc3c(CN(C)C)c(O)ccc3nc2-1`, the viability, T/C reads like this: (compound 0.000316 µM) 113% and 103% and 94.6%; (compound 0.001 µM) 94.3% and 94.9% and 92.1%; (compound 0.00316 µM) 106% and 97.8% and 101%; (compound 0.01 µM) 100% and 106% and 103%; (compound 0.0316 µM) 91.9% and 95.4% and 91.8%; (compound 0.1 µM) 70.9% and 76% and 51.1%. Besides, the IC50 (curve of compound) is above 100 nM.

Regarding `CCc1c2c(nc3ccc(O)cc13)-c1cc3c(c(=O)n1C2)COC(=O)[C@]3(O)CC`, the viability, T/C (compound 0.00316 µM) is 109% and 91.9% and 85.5%; the viability, T/C (compound 0.0316 µM) was 70.5% and 78% and 56.7%; the viability, T/C (compound 0.1 µM) was 56.5% and 58.4% and 51.8%; the viability, T/C (compound 0.316 µM) was 44.4% and 42.9% and 32.3%; the viability, T/C (compound 1 µM) was 27.6% and 37.6% and 25.5%. Moreover, the IC50 (curve of compound) was 128 nM and 200 nM and 50.2 nM.

On to `CNCc1ccc(-c2[nH]c3cc(F)cc4c3c2CCNC4=O)cc1`, for which the viability, T/C (compound 0.0316 µM) is 104% and 103% and 93%; the viability, T/C (compound 0.1 µM) is 98.4% and 101% and 86%; the viability, T/C (compound 0.316 µM) is 104% and 102% and 109%; the viability, T/C (compound 1 µM) is 107% and 120% and 102%; the viability, T/C (compound 3.16 µM) is 100% and 108% and 105%; the viability, T/C (compound 10 µM) was 96.8% and 103% and 92.1%. Moreover, the IC50 (curve of compound) was above 10000 nM.

Turning to `COC1C(OC(N)=O)C(O)C(Oc2ccc3c(O)c(NC(=O)c4ccc(O)c(CC=C(C)C)c4)c(=O)oc3c2C)OC1(C)C` (centres undefined), the viability, T/C by setting is: (compound 0.0316 µM) 108% [middle of 13 runs]; (compound 0.1 µM) 106% [middle of 13 runs]; (compound 0.316 µM) 106% [middle of 13 runs]; (compound 1 µM) 103% [middle of 13 runs]; (compound 3.16 µM) 101% [middle of 13 runs]; (compound 10 µM) 106% [middle of 13 runs]. Also, the IC50 (compound alone, run of 10/31/2023) is above 10000 nM.

The term viability, T/C denotes the result in the treated group divided by that in the control group, in per cent. Usually IC50 stands for the concentration at which inhibition is half-maximal.

The values are drawn from PubChem BioAssay AID1963850 (Molecular Pharmacology Branch, DTP, NCI, 2024).
